The values that follow come from patent publication US20230017532A1 (Hoffmann-La Roche Inc., priority 2018, published 2023).

Where a name gives a salt, the structure may show the parent alone. Read-outs that look alike come from different tables or passages of the source.

The test system of this experiment is Acinetobacter baumannii ATCC17978. As to the kind of experiment: Antimicrobial susceptibility testing: 90% growth inhibitory concentration (IC90) determination, Iso-Sensitest broth, OD 600 nm. In kind it is cell-based. The conditions noted are these: 90% growth inhibitory concentration, Acinetobacter baumannii ATCC17978, Iso-Sensitest broth, OD 600 nm over 16 h, read-out: ATCC 17978 IC90. The method, boiled down: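 Twofold serial dilutions (e.g. 50–0.097 μM final) incubated with ~5×10^5 CFU/ml in Iso-Sensitest broth at 35±2 °C. OD600 read every 20 min for 16 h; IC90 derived from growth inhibition during logarithmic phase.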

The mark [1] stands for this setting: Acinetobacter baumannii, ATCC17978, 16 h.

A word on the IC90: it is the concentration needed for an effect of 90%. Turning to `Cc1cc(Nc2nccn3c(-c4ccc(OCC#CCN)c(F)c4F)cnc23)ccc1C(=O)NCCOCCN` [Example 160, 4-[[3-[4-(4-aminobut-2-ynoxy)-2,3-difluorophenyl]imidazo[1,2-a]pyrazin-8-yl]amino]-N-[2-(2-aminoethoxy)ethyl]-2-methylbenzamide], the IC90 under setting [1] stood at 430 nM. On the same count and under the same terms, the result for `CNCCCCNC(=O)c1ccc(Nc2nccn3c(-c4ccc(OC)c(F)c4)cnc23)cc1C` [Example 161, 4-[[3-(3-fluoro-4-methoxyphenyl)imidazo[1,2-a]pyrazin-8-yl]amino]-2-methyl-N-[4-(methyl-amino)butyl] benzamide; hydrochloride] reads 350 nM; that for `CN(CCOCCN1CCNCC1)C(=O)c1ccc(Nc2nccn3c(-c4ccc(OC(F)F)cc4)cnc23)cc1Cl` [Example 162, 2-chloro-4-[[3-[4-(difluoromethoxy)phenyl]imidazo [1,2-a]pyrazin-8-yl]amino]-N-methyl-N-[2-(2-piperazin-1-yl-ethoxy)ethyl] benzamide; hydrochloride], 540 nM; that for `COc1ccc(-c2cnc3c(Nc4ccc(C(=O)N(C)CCOCCN5CCNCC5)c(Cl)c4)nccn23)cc1F` [Example 163, 2-chloro-4-[[3-(3-fluoro-4-methoxyphenyl)imidazo[1,2-a]pyrazin-8-yl]amino]-N-methyl-N-[2-(2-piperazin-1-ylethoxy)ethyl] benzamide; hydrochloride], 570 nM.

In the case of `Cc1cc(Nc2nccn3c(-c4ccc(OC(F)F)cc4)cnc23)ccc1C(=O)NCCOCCN1CCOC(CN)C1` (centres unmarked) [Example 164, N-[2-[2-[2-(aminomethyl)morpholin-4-yl]ethoxy]ethyl]-4-[[3-[4-(difluoro-methoxy)phenyl]imidazo [1,2-a]pyrazin-8-yl]amino]-2-methylbenzamide; hydrochloride], the concentration for an effect of 90% (IC90) under setting [1] is 970 nM. Consider `COc1ccc(-c2cnc3c(Nc4ccc(C(=O)N(CCC#N)CCCCNCCC#N)c(C)c4)nccn23)cc1F` [Example 165, N-(2-cyanoethyl)-N-[4-(2-cyanoethyl-amino)butyl]-4-[[3-(3-fluoro-4-methoxyphenyl)imidazo[1,2-a]pyrazin-8-yl]amino]-2-methylbenzamide], for which the IC90 under setting [1] was found to be 1500 nM. The same measure, in the same setting: the result for `COc1ccc(-c2cnc3c(Nc4ccc(C(=O)N(C)CCOCCN5CCNC(C(=O)O)C5)c(C)c4)nccn23)cc1F` (centres unmarked) [Example 166, 4-[2-[2-[[4-[[3-(3-fluoro-4-methoxyphenyl)imidazo[1,2-a]pyrazin-8-yl]amino]-2-methylbenzoyl]-methylamino]ethoxy]ethyl]piperazine-2-carboxylic acid; hydrochloride] reads 4700 nM; that for `COc1ccc(-c2cnc3c(Nc4ccc(C(=O)NCCOCCN)c(Br)c4)nccn23)c(F)c1F` [Example 167, N-[2-(2-aminoethoxy)ethyl]-2-bromo-4-[[3-(2,3-difluoro-4-methoxyphenyl)imidazo[1,2-a]pyrazin-8-yl]amino] benzamide; formic acid], 52 nM; that for `CCc1cc(Nc2nccn3c(-c4ccc(OC)c(F)c4F)cnc23)ccc1C(=O)NCCN(C)CCN` [Example 168, N-[2-[2-aminoethyl (methyl)amino]ethyl]-4-[[3-(2,3-difluoro-4-methoxyphenyl)imidazo[1,2-a]pyrazin-8-yl]amino]-2-ethylbenzamide; hydrochloride], 120 nM.

Regarding `CCc1cc(Nc2nccn3c(-c4ccc(OC)c(F)c4F)cnc23)ccc1C(=O)NCCOCCN(C)C` [Example 169, 4-[[3-(2,3-difluoro-4-methoxyphenyl)imidazo[1,2-a]pyrazin-8-yl]amino]-N-[2-[2-(dimethylamino)ethoxy]ethyl]-2-ethylbenzamide], the IC90 under setting [1] was 130 nM. On the same count and under the same terms, next, `CCc1cc(Nc2nccn3c(-c4ccc(OC(F)F)c(F)c4F)cnc23)ccc1C(=O)NCCNCCN` [Example 170, N-[2-(2-aminoethylamino)ethyl]-4-[[3-[4-(difluoro-methoxy)-2,3-difluorophenyl]imidazo[1,2-a]pyrazin-8-yl]amino]-2-ethylbenzamide; hydrochloride]: 280 nM. On to `COc1ccc(-c2cnc3c(Nc4ccc5c(c4)CCN(CCOCCN)C5=O)nccn23)c(F)c1F` [Example 171, 2-[2-(2-aminoethoxy)ethyl]-6-[[3-(2,3-difluoro-4-methoxyphenyl)imidazo[1,2-a]pyrazin-8-yl]amino]-3,4-dihydroiso-quinolin-1-one;2,2,2-trifluoroacetic acid], for which the IC90 under setting [1] was 290 nM.

`CCc1cc(Nc2nccn3c(-c4ccc(OCC(=O)OC)c(F)c4F)cnc23)ccc1C(=O)NCCOCCN` [Example 172, formic acid; methyl 2-[4-[8-[4-[2-(2-aminoethoxy)ethylcarbamoyl]-3-ethylanilino]imidazo[1,2-a]pyrazin-3-yl]-2,3-difluorophenoxy] acetate]: the IC90 under setting [1] came to 310 nM. Consider `COc1ccc(-c2cnc3c(Nc4ccc(C(=O)NCCOCCN)c(CC(F)F)c4)nccn23)cc1F` [Example 173, N-[2-(2-aminoethoxy)ethyl]-2-(2,2-difluoroethyl)-4-[[3-(3-fluoro-4-methoxyphenyl)imidazo[1,2-a]pyrazin-8-yl]amino] benzamide; formic acid], for which, under setting [1], the IC90 stood at 370 nM. On the same count and under the same terms, the result for `CCc1cc(Nc2nccn3c(-c4ccc(OC(F)F)c(F)c4F)cnc23)ccc1C(=O)NCCNCCO` [Example 174, 4-[[3-[4-(difluoromethoxy)-2,3-difluorophenyl]imidazo[1,2-a]pyrazin-8-yl]amino]-2-ethyl-N-[2-(2-hydroxy-ethylamino)ethyl]benzamide; hydrochloride] reads 590 nM.

For the compound `CN(CCOCCN1CCC(C(=O)O)CC1)C(=O)c1ccc(Nc2nccn3c(-c4ccc(OCC#N)c(F)c4F)cnc23)cc1Cl` [Example 175, 1-[2-[2-[[2-chloro-4-[[3-[4-(cyanomethoxy)-2,3-difluorophenyl]imidazo[1,2-a]pyrazin-8-yl]amino]benzoyl]-methylamino]ethoxy]ethyl] piperidine-4-carboxylic acid; formic acid], the IC90 under setting [1] amounted to 1100 nM. Turning to `CN(CCOCCN1CCCC(C(=O)O)C1)C(=O)c1ccc(Nc2nccn3c(-c4ccc(OCC#N)c(F)c4F)cnc23)cc1Cl` (centres unmarked) [Example 176, 1-[2-[2-[[2-chloro-4-[[3-[4-(cyanomethoxy)-2,3-difluorophenyl]imidazo[1,2-a]pyrazin-8-yl]amino]benzoyl]-methylamino]ethoxy]ethyl] piperidine-3-carboxylic acid; formic acid], the 90% effect concentration (IC90) under setting [1] amounted to 1200 nM. Same read-out and setting: the result for `N#CCOc1ccc(-c2cnc3c(Nc4ccc(C(=O)NCCOCCN5CCNC(C(=O)O)C5)c(Cl)c4)nccn23)c(F)c1F` (centres unmarked) [Example 177, 4-[2-[2-[[2-chloro-4-[[3-[4-(cyanomethoxy)-2,3-difluorophenyl]imidazo[1,2-a]pyrazin-8-yl]amino]benzoyl]amino]ethoxy]ethyl]piperazine-2-carboxylic acid; formic acid] reads 2300 nM. `CCc1cc(Nc2nccn3c(-c4ccc(OC)c(F)c4F)cnc23)ccc1C(=O)NCCCNCC[C@H](N)C(=O)O` [Example 183, (2S)-2-amino-4-[3-[[4-[[3-(2,3-difluoro-4-methoxyphenyl)imidazo[1,2-a]pyrazin-8-yl]amino]-2-ethyl-benzoyl]amino]propylamino] butanoic acid; formic acid]: the IC90 under setting [1] was found to be 660 nM. With `CCc1cc(Nc2nccn3c(-c4ccc(OC)c(F)c4F)cnc23)ccc1C(=O)NCCCNCCCN` [Example 184, N-[3-(3-aminopropyl-amino)propyl]-4-[[3-(2,3-difluoro-4-methoxyphenyl)imidazo[1,2-a]pyrazin-8-yl]amino]-2-ethyl-benzamide;2,2,2-trifluoroacetic acid], the IC90 under setting [1] came out at 590 nM. As for `CCc1cc(Nc2nccn3c(-c4ccc(OC)c(F)c4F)cnc23)ccc1C(=O)NCCCNCCN` [Example 185, N-[3-(2-aminoethyl-amino)propyl]-4-[[3-(2,3-difluoro-4-methoxyphenyl)imidazo[1,2-a]pyrazin-8-yl]amino]-2-ethylbenzamide; 2,2,2-trifluoro-acetic acid], the concentration for an effect of 90% (IC90) under setting [1] turned out to be 590 nM.

Regarding `CCc1cc(Nc2nccn3c(-c4ccc(OC)c(F)c4F)cnc23)ccc1C(=O)NCCNCCN` [Example 186, N-[2-(2-aminoethyl-amino)ethyl]-4-[[3-(2,3-difluoro-4-methoxyphenyl)imidazo[1,2-a]pyrazin-8-yl]amino]-2-ethyl-benzamide;2,2,2-trifluoroacetic acid], the IC90 was 660 nM. As for `COc1ccc(-c2cnc3c(Nc4ccc(C(=O)NCCCNCC[C@H](N)C(=O)O)c(C)c4)nccn23)c(F)c1F` [Example 187, (2S)-2-amino-4-[3-[[4-[[3-(2,3-difluoro-4-methoxyphenyl)imidazo[1,2-a]pyrazin-8-yl]amino]-2-methyl-benzoyl]amino]propylamino] butanoic acid], under setting [1], the concentration for an effect of 90% (IC90) turned out to be 1100 nM. Regarding `CCc1cc(Nc2nccn3c(-c4ccc(OC)c(F)c4F)cnc23)ccc1C(=O)NCCNCCCN` [Example 188, N-[2-(3-amino-propylamino)ethyl]-4-[[3-(2,3-difluoro-4-methoxyphenyl)imidazo[1,2-a]pyrazin-8-y]amino]-2-ethylbenzamide; formic acid], the IC90 under setting [1] was 1200 nM. Consider `COc1ccc(-c2cnc3c(Nc4ccc(C(=O)NCCNCCC[C@H](N)C(=O)O)c(C)c4)nccn23)c(F)c1F` [Example 189, (2S)-2-amino-5-[2-[[4-[[3-(2,3-difluoro-4-methoxyphenyl)imidazo[1,2-a]pyrazin-8-yl]amino]-2-methyl-benzoyl]amino]ethylamino] pentanoic acid], for which the 90% effect concentration (IC90) under setting [1] came out at 2400 nM.

Regarding `CCc1cc(Nc2nccn3c(-c4ccc(Cl)c(F)c4F)cnc23)ccc1C(=O)NCCCNC` [Example 192, 4-[[3-(4-chloro-2,3-difluorophenyl)imidazo[1,2-a]pyrazin-8-yl]amino]-2-ethyl-N-[3-(methyl-amino)propyl] benzamide; hydrochloride], the 90% effect concentration (IC90) under setting [1] amounted to 1600 nM.
